Measured values as given in PMC11123841, “Discovery and Synthesis of Hydroxy-L-Proline Blockers of the Neutral Amino Acid Transporters SLC1A4 (ASCT1) and SLC1A5 (ASCT2)” (Molecules, 2024).
“Also recorded” adds a separate entry of the source.

Key:
[1] = biological target: T1, SLC7A10+SLC3A2 (asc-1/4f2) (Homo sapiens, UniProt Q9NS82); assay: [3H]D-serine uptake in oocytes; assay type: cell-based; conditions: 10 µM BPOHP
T1 construct: expressed in transfected cells; host or cells: Xenopus laevis oocytes (cRNA co-injection)
T1 sequence (Q9NS82 1-523): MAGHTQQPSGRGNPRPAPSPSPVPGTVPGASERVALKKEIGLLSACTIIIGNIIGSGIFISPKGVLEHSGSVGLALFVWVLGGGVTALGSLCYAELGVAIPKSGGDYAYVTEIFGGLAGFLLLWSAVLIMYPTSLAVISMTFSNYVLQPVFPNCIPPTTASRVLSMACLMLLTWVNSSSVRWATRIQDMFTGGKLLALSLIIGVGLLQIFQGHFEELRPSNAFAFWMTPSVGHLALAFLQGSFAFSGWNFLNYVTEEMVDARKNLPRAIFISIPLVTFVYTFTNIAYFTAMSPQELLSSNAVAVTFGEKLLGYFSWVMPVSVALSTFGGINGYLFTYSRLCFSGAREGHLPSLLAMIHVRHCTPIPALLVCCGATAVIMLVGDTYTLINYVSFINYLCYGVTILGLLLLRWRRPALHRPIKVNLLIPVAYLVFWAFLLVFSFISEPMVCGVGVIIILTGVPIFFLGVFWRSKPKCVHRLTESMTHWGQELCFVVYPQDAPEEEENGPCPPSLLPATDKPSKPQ
T1 sequence (P08195 1-529 partner): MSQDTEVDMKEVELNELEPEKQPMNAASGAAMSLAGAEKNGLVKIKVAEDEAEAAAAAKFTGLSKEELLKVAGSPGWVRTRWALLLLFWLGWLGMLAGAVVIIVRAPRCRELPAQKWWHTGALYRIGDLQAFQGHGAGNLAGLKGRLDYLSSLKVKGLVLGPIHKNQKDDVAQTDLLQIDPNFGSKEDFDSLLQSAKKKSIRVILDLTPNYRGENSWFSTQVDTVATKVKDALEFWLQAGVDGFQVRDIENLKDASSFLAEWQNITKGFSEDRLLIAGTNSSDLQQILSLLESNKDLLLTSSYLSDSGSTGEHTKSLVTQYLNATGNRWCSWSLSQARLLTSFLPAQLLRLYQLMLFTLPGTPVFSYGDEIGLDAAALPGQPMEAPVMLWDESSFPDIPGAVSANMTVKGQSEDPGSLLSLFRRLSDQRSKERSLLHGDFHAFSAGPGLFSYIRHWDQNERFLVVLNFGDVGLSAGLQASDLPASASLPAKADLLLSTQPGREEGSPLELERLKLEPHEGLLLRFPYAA
Method: BPOHP activity was evaluated against the glutamate transporters paralogs within the SLC1A gene family (SLC1A 1–3) as well as at neutral amino acid transporters that share common ligand substrates with the SLC1 family including SLC38A1,2, and 4 (ATA1, ATA2, ATA3) and heteromeric transporters SLC7A10+SLC3A2 (asc-1/4f2). […] Finally, radiolabeled [^3H]D-serine uptake was used to assess the electroneutral SLC7A10+SLC3A2 transporter, in which 10 µM BPOHP had no effect (Figure S3).
Uptake was halted by washing 3 times with 4 °C ND96 buffer. Oocytes were then lysed in 0.1% Triton X-100, and radioactivity was counted via liquid scintillation. Dose response curves were generated by fitting fractional inhibition (I) to the expression I = Imax × [inhibitor]/([inhibitor] + IC50).
Figure SM-3A. Representative traces showing 100µM L-Ala currents and co-application of 3µM BPOHP (black bar) with no effect on SLC38A neutral amino acid transporters SLC38A1(ATA1), SLC38A2 (ATA2), and SLC38A4 (ATA3). SM-3B. [3H]D-serine uptake (100nM) in SLC1A4 is blocked by BPOHP (10µM), however, [ 3H]D-serine uptake by co -expressed SLC7A10+SLC3A2 (asc1+4F2) nor SLC3A2 (4f2) expressed (injected) alone was blocked by application of 10µM BPOHP.
Figure SM-4. Tosic acid approach to compound 12c. (i) Tosylic acid 0.1M in THF 60◦C. (ii) Phenol and NaH in DCM, 40◦C under argon balloon (iii) 10% Pd/C (10% w/eq.), H2, MeOH, H2O, […]

SLC1A4 = biological target: T2, SLC1A4 (Homo sapiens, UniProt P43007); assay: [3H]D-serine uptake in oocytes; assay type: cell-based; conditions: [3H]D-serine 100 nM, 10 µM BPOHP
T2 construct: expressed in transfected cells; host or cells: Xenopus laevis oocytes (cRNA injection)
T2 sequence (P43007 1-532): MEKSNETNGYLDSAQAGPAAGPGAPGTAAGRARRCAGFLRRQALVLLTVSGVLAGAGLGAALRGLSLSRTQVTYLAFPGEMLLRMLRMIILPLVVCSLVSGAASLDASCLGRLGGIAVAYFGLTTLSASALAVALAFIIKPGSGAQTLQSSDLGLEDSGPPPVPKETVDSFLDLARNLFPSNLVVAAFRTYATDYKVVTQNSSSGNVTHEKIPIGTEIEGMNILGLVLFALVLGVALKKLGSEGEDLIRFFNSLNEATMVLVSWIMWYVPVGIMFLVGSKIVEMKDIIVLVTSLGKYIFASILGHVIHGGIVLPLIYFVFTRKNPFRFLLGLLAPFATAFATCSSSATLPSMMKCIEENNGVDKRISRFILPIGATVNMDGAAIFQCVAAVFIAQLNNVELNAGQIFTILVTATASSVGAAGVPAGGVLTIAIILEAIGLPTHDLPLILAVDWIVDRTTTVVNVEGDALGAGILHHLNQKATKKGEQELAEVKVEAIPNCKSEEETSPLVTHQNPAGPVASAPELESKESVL
Method: page 6: vi Figure SM-3A. […] with no effect on SL[…] neutral amino acid transporters SLC38A1(ATA1), SLC38A2 (ATA2), and SLC38A4 (ATA3). SM-3B. […] by application of 10μM BPOHP. Figure SM-4. Tosic acid approach to compound 12c. (i) Tosylic acid 0.1M in THF 60◦C. (ii) […] S.Figure 3 A. […] SLC38A1(ATA1), SLC38A2 (ATA2), and SLC38A4 (ATA3). B. […] SLC7A10+SLC3A2 (asc1+4F2). […]

effect on [3H]D-serine uptake (SLC1A4): blocked
Structure (SMILES): O=C(O)[C@H]1NC[C@@H](OCc2ccc(-c3ccccc3)cc2)[C@@H]1O [14e]
effect on [3H]D-serine uptake [1]: no effect; also recorded: no inhibition was detected
